The first experiment concerns the target T1, full length human wildtype Btk (Homo sapiens, UniProt Q06187).
T1 construct: V5 (C); 6xHis (C); made in house; host or cells: Sf9 insect cells (baculovirus, pFastBac)
Briefly: Biochemical Btk Kinase Assay (Example 901). The note with it: time-resolved fluorescence, final ATP concentration 40 µM; alternatively Lanthascreen assay, ATP 25 uM. The procedure: Formula I compounds were tested by a standard biochemical Btk Kinase Assay (Example 901). A generalized procedure for a standard biochemical Btk Kinase Assay that can be used to test Formula I compounds is as follows. […] Btk enzyme is prepared as follows: full length human wildtype Btk (accession number NM-000061) with a C-terminal V5 and 6x His tag was subcloned into pFastBac vector for making baculovirus carrying this epitope-tagged Btk. Generation of baculovirus is done based on Invitrogen's instructions detailed in its published protocol "Bac-to-Bac Baculovirus Expression Systems" (Cat. Nos. 10359-016 and 10608-016). Passage 3 virus is used to infect Sf9 cells to overexpress the recombinant Btk protein. The Btk protein is then purified to homogeneity using Ni-NTA column. The purity of the final protein preparation is greater than 95% based on the sensitive Sypro-Ruby staining. A solution of 200 µM ATP is prepared in water and adjusted to pH7.4 with 1N NaOH. A quantity of 1.25 µL of compounds in 5%DMSO is transferred to a 96-well ½ area Costar polystyrene plate. Compounds are tested singly and with an 11-point dose-responsive curve (starting concentration is 10 µM; 1:2 dilution). A quantity of 18.75 µL of master mix minus enzyme (as a negative control) and master mix plus enzyme is transferred to appropriate wells in 96-well ½ area costar polystyrene plate. 5 µL of 200 µM ATP is added to that mixture in the 96-well ½ area Costar polystyrene plate for final ATP concentration of 40 µM. The reaction is allowed to incubate for 1 hour at room temperature. The reaction is stopped with Perkin Elmer 1X detection buffer containing 30 mM EDTA, 20 nM SA-APC, and 1 nM PT66 Ab. The plate is read using time-resolved fluorescence with a Perkin Elmer Envision using excitation filter 330 nm, emission filter 665 nm, and 2nd emission filter 615 nm. IC50 values are subsequently calculated. Alternatively, the Lanthascreen assay can be used to evaluate Btk activity through quantification of its phosphorylated peptide product. The FRET (Fluorescence Resonance Energy Transfer) that occurs between the fluorescein on the peptide product and the terbium on the detection antibody decreases with the addition of inhibitors of Btk that reduce the phosphorylation of the peptide. […] After incubation for 60 minutes at room temperature, the reaction is stopped by the addition of a final concentration of 2 nM Tb-PY20 detection antibody in 60 mM EDTA for 30 minutes at room temperature. Detection is determined on a Perkin Elmer Envision with 340 nm excitation and emission at 495 nm and 520 nm. Exemplary Btk inhibition IC50 values are in Tables and 2.
T1 sequence (Q06187 whole entry): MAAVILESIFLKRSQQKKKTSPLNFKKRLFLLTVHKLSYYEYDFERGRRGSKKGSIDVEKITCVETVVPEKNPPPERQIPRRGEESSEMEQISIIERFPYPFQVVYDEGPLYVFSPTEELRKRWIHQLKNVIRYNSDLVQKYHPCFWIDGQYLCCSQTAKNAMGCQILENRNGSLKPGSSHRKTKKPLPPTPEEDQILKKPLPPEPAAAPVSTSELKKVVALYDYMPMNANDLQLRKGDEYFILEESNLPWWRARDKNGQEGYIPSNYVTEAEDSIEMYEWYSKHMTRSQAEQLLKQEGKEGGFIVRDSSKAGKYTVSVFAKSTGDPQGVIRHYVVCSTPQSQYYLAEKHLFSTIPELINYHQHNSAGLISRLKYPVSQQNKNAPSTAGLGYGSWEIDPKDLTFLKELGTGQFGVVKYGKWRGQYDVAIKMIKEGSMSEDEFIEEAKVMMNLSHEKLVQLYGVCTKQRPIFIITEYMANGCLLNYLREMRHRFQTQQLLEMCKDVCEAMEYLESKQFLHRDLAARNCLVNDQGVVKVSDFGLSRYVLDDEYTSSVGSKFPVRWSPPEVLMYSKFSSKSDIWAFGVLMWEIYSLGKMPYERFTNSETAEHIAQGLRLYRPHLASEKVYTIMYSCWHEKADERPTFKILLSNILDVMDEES
In the case of `CN1CCn2nc(Nc3cc(-c4cccc(N5Cc6cc(C(C)(C)C)sc6C5=O)c4CO)nn(C)c3=O)cc2C1` [Compound 120, 6-(3-{2-tert-butyl-6-oxo-4H,5H,6H-thieno[2,3-c]pyrrol-5-yl}-2-(hydroxymethyl)phenyl)-2-methyl-4-({5-methyl-4H,5H,6H,7H-pyrazolo[1,5-a]pyrazin-2-yl}amino)-2,3-dihydropyridazin-3-one], the IC50 is 55 nM.
The same measure, in the same setting: the result for `Cc1cc(Nc2cc(-c3cccc(N4Cc5cc(C(C)(C)C)sc5C4=O)c3C)n[nH]c2=O)no1` [Compound 115, 6-(3-{2-tert-butyl-6-oxo-4H,5H,6H-thieno[2,3-c]pyrrol-5-yl}-2-methylphenyl)-4-[(5-methyl-1,2-oxazol-3-yl)amino]-2,3-dihydropyridazin-3-one] reads 18 nM; that for `Cc1c(-c2cc(Nc3cc(C)n(C)n3)c(=O)[nH]n2)cccc1N1Cc2cc(C(C)(C)C)sc2C1=O` [Compound 112, 6-(3-{2-tert-butyl-6-oxo-4H,5H,6H-thieno[2,3-c]pyrrol-5-yl}-2-methylphenyl)-4-[(1,5-dimethyl-1 H-pyrazol-3-yl)amino]-2,3-dihydropyridazin-3-one], 3 nM.
The same measure, in the same setting: the result for `Cc1c(-c2cc(Nc3nc4c(s3)CNCC4)c(=O)[nH]n2)cccc1N1Cc2cc(C(C)(C)C)sc2C1=O` [Compound 118, 6-(3-{2-tert-butyl-6-oxo-4H,5H,6H-thieno[2,3-c]pyrrol-5-yl}-2-methylphenyl)-4-{4H,5H,6H,7H-pyrido[4,3-d][1,3]thiazol-2-ylamino}-2,3-dihydropyridazin-3-one] reads 65 nM; that for `Cc1c(-c2cc(Nc3cc(CN4CC(F)(F)C4)n(C)n3)c(=O)[nH]n2)cccc1N1Cc2cc(C(C)(C)C)sc2C1=O` [Compound 119, 6-(3-{2-tert-butyl-6-oxo-4H,5H,6H-thieno[2,3-c]pyrrol-5-yl}-2-methylphenyl)-4-({5-[(3,3-difluoroazetidin-1-yl)methyl]-1-methyl-1H-pyrazol-3-yl}amino)-2,3-dihydropyridazin-3-one], 5 nM; that for `Cc1cc(Nc2cc(-c3ccc(F)c(N4Cc5cc(C(C)(C)C)sc5C4=O)n3)n[nH]c2=O)nn1C` [Compound 117, 6-(6-{2-tert-butyl-b-oxo-4H,5H,6H-thieno[2,3-c]pyrrol-5-yl}-5-fluoropyridin-2-yl)-4-[(1,5-dimethyl-1H-pyrazol-3-yl)amino]-2,3-dihydropyridazin-3-one], 45 nM.

The next experiment concerns CD86 surface expression. Briefly: CD86 Inhibition Assay (Example 905), inhibition of B cell activity in total mouse splenocytes. The conditions noted are these: Splenocyte; total mouse splenocytes stimulated with 15 µg/ml IgM for 24 hr; gated on CD19+/7AAD- population. The class given is cell-based, Balb/c mice. How it is done: A CD86 Inhibition assay can be conducted on Formula I compounds for the inhibition of B cell activity using total mouse splenocytes purified from spleens of 8-16 week old Balb/c mice (Example 905).
A generalized procedure for a standard assay for the inhibition of B cell activity that can be used to test Formula I compounds is as follows. Total mouse splenocytes are purified from spleens of 8-16 week old Balb/c mice by red blood cell lysis (BD Pharmingen #555899). Testing compounds are diluted to 0.5% DMSO and incubated with 1.25 x 10^6 splenocytes in a final volume of 200 µl in flat clear bottom plates (Falcon 353072) for 60 min at 37°C. Cells are then stimulated with the addition of 15 µg/ml IgM (Jackson ImmunoResearch 115-006-020), and incubated for 24 hr at 37°C, 5% CO2. Following the 24 hr incubation, cells are transferred to conical bottom clear 96-well plates and pelleted by centrifugation at 1200 x g x 5 min. Cells are preblocked by CD16/CD32 (BD Pharmingen #553142), followed by triple staining with CD19-FITC (BD Pharmingen #553785), CD86-PE (BD Pharmingen #553692), and 7AAD (BD Pharmingen #51-68981E). Cells are sorted on a BD FACSCalibur and gated on the CD19^+/7AAD^- population. The levels of CD86 surface expression on the gated population is measured versus test compound concentration. Exemplary results are in Table 3.
The molecule `CN1CCn2nc(Nc3cc(-c4cccc(N5Cc6cc(C(C)(C)C)sc6C5=O)c4CO)nn(C)c3=O)cc2C1` [Compound 120, 6-(3-{2-tert-butyl-6-oxo-4H,5H,6H-thieno[2,3-c]pyrrol-5-yl}-2-(hydroxymethyl)phenyl)-2-methyl-4-({5-methyl-4H,5H,6H,7H-pyrazolo[1,5-a]pyrazin-2-yl}amino)-2,3-dihydropyridazin-3-one] had an EC50 of 189 nM.
On to `Cc1c(-c2cc(Nc3cc4n(n3)CCN(C)C4)c(=O)n(C)n2)cc(F)cc1N1Cc2cc(C(C)(C)C)sc2C1=O` [Compound 124, 6-(3-{2-tert-butyl-6-oxo-4H,5H,6H-thieno[2,3-c]pyrrol-5-yl}-5-fluoro-2-methylphenyl)-2-methyl-4-({5-methyl-4H,5H,6H,7H-pyrazolo[1,5-a]pyrazin-2-yl}amino)-2,3-dihydropyridazin-3-one], for which it took 1100 nM to reach a half-maximal effect (EC50).
As to `Cc1c(-c2cc(Nc3cc4n(n3)CCN(C)C4)c(=O)[nH]n2)cccc1N1Cc2cc(C(C)(C)C)sc2C1=O` [Compound 101, 6-(3-{2-tert-butyl-6-oxo-4H,5H,6H-thieno[2,3-c]pyrrol-5-yl}-2-methylphenyl)-4-({5-methyl-4H,5H,6H,7H-pyrazolo[1,5-a]pyrazin-2-yl}amino)-2,3-dihydropyridazin-3-one], it took 192 nM to reach a half-maximal effect (EC50).
Same read-out and setting: then `Cn1nc(-c2cccc(N3Cc4cc(C(C)(C)C)sc4C3=O)c2CO)cc(Nc2ccncn2)c1=O` [Compound 136, 6-(3-{2-tert-butyl-6-oxo-4H,5H,6H-thieno[2,3-c]pyrrol-5-yl}-2-(hydroxymethyl)phenyl)-2-methyl-4-(pyrimidin-4-ylamino)-2,3-dihydropyridazin-3-one], with 704 nM; and `Cn1nc(-c2cccc(N3Cc4cc(C(C)(C)C)sc4C3=O)c2CO)cc(Nc2cc(C3CC3)[nH]n2)c1=O` [Compound 127, 6-(3-{2-tert-butyl-6-oxo-4H,5H,6H-thieno[2,3-c]pyrrol-5-yl}-2-(hydroxymethyl)phenyl)-4-[(5-cyclopropyl-1H-pyrazol-3-yl)amino]-2-methyl-2,3-dihydropyridazin-3-one], with 178 nM; and `Cc1cc(Nc2cc(-c3cccc(N4Cc5cc(C(C)(C)C)sc5C4=O)c3CO)nn(C)c2=O)nn1C` [Compound 131, 6-(3-{2-tert-butyl-6-oxo-4H,5H,6H-thieno[2,3-c]pyrrol-5-yl}-2-(hydroxymethyl)phenyl)-4-[(1,5-dimethyl-1H-pyrazol-3-yl)amino]-2-methyl-2,3-dihydropyridazin-3-one], with 139 nM.
On to `Cn1nc(-c2cccc(N3Cc4cc(C(C)(C)C)sc4C3=O)c2CO)cc(Nc2cc3n(n2)CCCOC3)c1=O` [Compound 134, 6-(3-{2-tert-butyl-6-oxo-4H,5H,6H-thieno[2,3-c]pyrrol-5-yl}-2-(hydroxymethyl)phenyl)-2-methyl-4-{4H,6H,7H,8H-pyrazolo[3,2-c][1,4]oxazepin-2-ylamino}-2,3-dihydropyridazin-3-one], for which a half-maximal response (EC50) required 206 nM.
`CC(=O)N1CCn2nc(Nc3cc(-c4cccc(N5Cc6cc(C(C)(C)C)sc6C5=O)c4CO)nn(C)c3=O)cc2C1` [Compound 132, 6-(3-{2-tert-butyl-6-oxo-4H,5H,6H-thieno[2,3-c]pyrrol-5-yl}-2-(hydroxymethyl)phenyl)-4-({5-acetyl-4H,5H,6H,7H-pyrazolo[1,5-a]pyrazin-2-yl}amino)-2-methyl-2,3-dihydropyridazin-3-one]: a half-maximal effect (EC50) was put at 113 nM.
The same measure, in the same setting: the result for `Cc1c(-c2cc(Nc3cc(CN4CC(F)(F)C4)n(C)n3)c(=O)[nH]n2)cccc1N1Cc2cc(C(C)(C)C)sc2C1=O` [Compound 119, 6-(3-{2-tert-butyl-6-oxo-4H,5H,6H-thieno[2,3-c]pyrrol-5-yl}-2-methylphenyl)-4-({5-[(3,3-difluoroazetidin-1-yl)methyl]-1-methyl-1H-pyrazol-3-yl}amino)-2,3-dihydropyridazin-3-one] reads 352 nM.

(Values after patent publication EP2611798B1, “PYRIDAZINONES, METHOD OF MAKING, AND METHOD OF USE THEREOF” (Gilead Connecticut, Inc., priority 2010, dated 2012).)
